The values that follow come from PMC6345745, “Discovery of novel hit compounds with broad activity against visceral and cutaneous Leishmania species by comparative phenotypic screening” (Scientific Reports, 2019).

Data set [1] concerns intracellular L. amazonensis amastigotes (strain LV79). As to the kind of experiment: High content assay on intramacrophagic L. amazonensis amastigotes in primary mouse macrophages. It counts as cell-based, Leishmania amazonensis. The conditions noted are these: hit compounds of Figure 6. How it is done:
(§1) Bone marrow derived macrophages (BMDMs) at day 6 of differentiation were resuspended in complete medium supplemented with CSF-1 (25 ng/ml) and deposited in 384 well plates (culture-treated, flat-optically clear bottom, Cellcarrier plate, PerkinElmer). Five hours later purified Am were added.
(§2) One day after macrophage infection, Leish-Box compounds dissolved in DMSO were added for 3 days at 10 or 1 μM final concentration resulting in a 1% DMSO final concentration. Each compound was tested in quadruplicates. Controls included mock (no liquid added), vehicle control (DMSO), positive control (anti-leishmanial amphotericin B, AmB), and cytotoxicity control (cycloheximide, Cyclo).
The high content assay used to assess the anti-leishmanial activity against intramacrophagic amastigotes of L. amazonensis has been described elsewhere. Briefly, after 3 days of co-incubation with compounds, BMDM nuclei and parasitophorous vacuoles (PVs) were stained with Hoechst 33342 (Invitrogen Molecular Probes, 12 µM) and LysoTracker Green (Life Technologies, DND-26, 1 µM), respectively. Acquisition of images was performed on live cell cultures.
(§3) Images of macrophage cultures were acquired using the automatic Opera QEHS confocal imaging system (Perkin Elmer Technology). For the L. donovani HCA, a 40x water objective and two lasers (488 nm for immuno-stained parasites; 405 nm for Hoechst-stained parasite and macrophage nuclei, and HCS-stained macrophage cytoplasm) were used for acquiring 285 fields for the entire well or 30 fields per well in routine HCA conditions. For L. amazonensis HCA, a 10x air objective and three lasers (561 nm for mCherry-expressing parasites; 488 nm for LysoTracker-containing PVs; 405 nm for Hoechst-stained macrophage nuclei) were used to acquire images from entire wells (15 fields).

The test system of data set [2] is BMDM (bone marrow derived macrophages). Briefly: Host cell toxicity (macrophage number) in the L. donovani high content assay. The conditions noted are these: for EC50: Mus musculus, BMDM, 72 h, toxicity against macrophages, 3 days, concentrations from 10 to 0.16 µM. The class given is cell-based, mouse. How it is done: Primary mouse macrophages were prepared as described. Briefly, bone marrow cells were recovered from BALB/c mice and were resuspended in complete DMEM medium (PAN Biotech) supplemented with 75 ng/ml of recombinant mouse CSF-1 (ImmunoTools). Cells were distributed in hydrophobic Petri dishes (Greiner 664161, 1,5 × 10^7 in 11 ml) and incubated at 37 °C in a 7.5% CO2 air atmosphere for 6 days (with mCSF-1 supplemented medium added at day 3).
as §1, §2
(§4) The high content assay used to assess the anti-leishmanial activity against intramacrophagic L. donovani amastigotes corresponds to the L. amazonensis HCS protocol up to the drug incubation step. Then, BMDM cultures were fixed with 4% paraformaldehyde solution in PBS for 1 hour at room temperature, washed with PBS, blocked with 50 mM NH4Cl-PBS for 15 min, and saturated for 30 min with saponin-PBS (0.1 mg/ml) containing 5% normal goat serum. All washing steps were performed with saponin-PBS. Cells were incubated for 45 min with saponin-PBS with 0.25% gelatin and an immune serum obtained from a L. donovani infected hamster (dilution 1/1000), washed twice, and further incubated for 45 min with saponin-PBS containing 0.25% gelatin and 2 µg/ml conjugated AlexaFluor 488 goat anti hamster IgG (Jackson ImmunoReasearch). Finally, after additional washing, Hoechst 33342 (5 µg/ml) and HCS CellMask Blue stain (HCS, Invitrogen Molecular Probes, 2 µg/ml) were added for 30 min at room temperature, washed twice with PBS and stored at 4 °C until acquisition. For hit compounds EC50s were calculated using SigmaPlot software (four parameter logistic equation) following application of a range of concentrations (from 10 to 0.16 µM) performed in duplicates.
(§5) Images were transferred to the Columbus Conductor™ Database (Perkin Elmer Technologies) and analyzed using the integrated Image analysis building blocks. For L. donovani HCA, we developed a new script based on object segmentation subroutines detecting successively the macrophage nucleus, the macrophage cytoplasm, the parasites and their nuclei, with their associated features (number, size and object intensity). All methods used for segmentation are described in the Columbus Manuel. Analysis was simplified by only taking into account the number of macrophages and the number of amastigotes per macrophage, which was the common way to estimate the anti-leishmanial activity in screening campaigns. For the sake of clarity, both toxicity against host cells and activity against the parasites of tested compounds were normalized to DMSO-treated controls and expressed as percent of DMSO controls. The viability index is calculated by establishing a ratio of macrophage numbers between compound- and DMSO-treated cells, while the anti-leishmanial activity is represented by the number of amastigotes per macrophage. Compounds causing a 50% or higher reduction of macrophage density were considered toxic. […] For the L. amazonensis HCA, we applied the method we described previously. Quantitative values obtained for host cell and parasite numbers were exported to Excel and SigmaPlot for further analysis and graphical representations.

Data set [3] relates to intracellular L. donovani amastigotes (strain Ld1S). Briefly: High content assay on intramacrophagic L. donovani amastigotes in primary mouse macrophages. The class given is cell-based, Leishmania donovani. Particulars: for SI (selectivity index): EC50 (BMDM) versus EC50 (L. donovani Am); for EC50: Leishmania donovani, BMDM, 72 h, read-out: EC50 (L. donovani Am). How it is done:
as §1, §2, §4, §3
as §5, with “Quantitative values obtained for host cell and parasite numbers were exported to Excel and SigmaPlot for further analysis and graphical representations.” left out

Data set [4] concerns L. donovani promastigotes (Ld1S). Briefly: Resazurin reduction viability assay on cultured L. donovani promastigotes. The conditions noted are these: Leishmania donovani, read-out: EC50 against L. donovani promastigotes. It counts as cell-based. How it is done:
Figure 4 Leish-Box screening results for cultured L. donovani promastigotes. A resazurin-based viability assay was used to assess anti-leishmanial activity of Leish-Box compounds against Ld1S promastigotes. Two days after compound addition to parasite cultures at logarithmic growth phase, resazurin was added for an additional 24 hours before reading the level of resofurin fluorescence using an Infinite™ M200 plate reader (Tecan™). […] The outer and inner circles represent respectively 80% and 50% threshold activity values.
Anti-leishmanial activity of compounds was evaluated using an adapted resazurin reduction assay[53] with cell-cycling promastigotes from logarithmic growth phase. Compounds were tested in quadruplicates at 20, 4 and 0.8 μM at 26 °C in 384-well plates. DMSO vehicle and AmB (1 μM) were used as controls. Two days later, resazurin was added (10 μL per well at 25 μg/mL) and fluorescence intensity was measured 24 h later using a Tecan Safire 2 reader (excitation 558 ± 4.5 nm; emission 585 ± 10 nm). Following background subtraction (complete parasite culture medium with resazurin in absence of parasites), data were expressed as percentages of growth compared to DMSO-treated controls (POC).
In general terms: The colour change of resazurin is a common sign of viable cells or microbes.

Structures are written as SMILES.

For the compound `COc1ccc(NS(=O)(=O)c2cc(NC(=O)c3ccc([N+](=O)[O-])s3)ccc2OC)cc1` [TCMDC-143163], the “activity on L. amazonensis intramacrophagic amastigotes” value (from here on “activity”) in data set [1] is “active”. For the same compound, in data set [2], the EC50 (as a rule, the concentration that produces a half-maximal response) was over 10 µM. Also, in data set [3], the “SI (selectivity index)” value is listed as over 10 and the half-maximal effective concentration (EC50) amounted to 0.79 µM.

Turning to `Cc1ccc(NC(=O)c2ccc([N+](=O)[O-])s2)cc1S(=O)(=O)N1CCOCC1` [TCMDC-143577], the “activity” value in data set [1] is recorded as “active”. Moreover, the results for the half-maximal effective concentration (EC50) in data set [2] and in data set [3] were 5.09 µM and 1.25 µM, respectively.

For the compound `O=C(Nc1cccc(S(=O)(=O)Nc2ccc(Br)cc2)c1)c1ccc([N+](=O)[O-])s1` [TCMDC-143563], the “activity” value in data set [1] is given as “active”. In data set [2], this compound showed a concentration giving a half-maximal response (EC50) of 6.25 µM. For the same compound, in data set [3], the “SI (selectivity index)” value is on record as over 10 and the EC50 came to 0.59 µM.

On to `C[C@@H]1[C@H](O)[C@@H](C)/C=C/C=C/C=C/C=C/C=C/C=C/C=C/[C@H](O[C@@H]2O[C@H](C)[C@@H](O)[C@H](N)[C@@H]2O)C[C@@H]2O[C@](O)(C[C@@H](O)C[C@@H](O)[C@H](O)CC[C@@H](O)C[C@@H](O)CC(=O)O[C@H]1C)C[C@H](O)[C@H]2C(=O)O` [AmB, amphotericin B, reference compound], for which, in data set [2] (BMDMs recovered after three days of treatment, normalized to mock), the “toxicity toward the host cell” value was “some toxicity”. The “amastigote survival compared to DMSO control” value in data set [3] (positive control, 3 days) came out at 0.8%.

Take `COc1ccc(Oc2ccc(C(C)N(C)c3ncc4c(N)nc(N)nc4n3)cc2)cc1` (stereo not shown) [TCMDC-143295]: the “activity” value in data set [1] is “active”. For the same compound, the EC50 in data set [4] is 0.08 µM; in data set [2] it was over 10 µM; in data set [3] it was 0.48 µM. For the same compound, the “SI (selectivity index)” value in data set [3] was over 10.

In the case of `O=C(Nc1ccc(S(=O)(=O)N2CCCC2)cc1)c1ccc([N+](=O)[O-])s1` [TCMDC-143169], in data set [1], the “activity” value is “active”. Besides, the EC50 in data set [2] is over 10 µM. Also, in data set [3], the “SI (selectivity index)” value is reported as > 1,5 and the concentration giving a half-maximal response (EC50) amounted to 6.88 µM.
